What was measured:
[1] = molecular target: T1, Recombinant human α-L-iduronidase protein (Homo sapiens, UniProt P35475); experiment: Differential scanning fluorimetry (DSF) thermal stabilization; format: binding; settings: synthetized Examples 38-94; ΔTm class;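 note: Classes count stabilization of α-L-iduronidase despite the GALC label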
T1 construct: purchased R&D
T1 sequence (P35475 28-653): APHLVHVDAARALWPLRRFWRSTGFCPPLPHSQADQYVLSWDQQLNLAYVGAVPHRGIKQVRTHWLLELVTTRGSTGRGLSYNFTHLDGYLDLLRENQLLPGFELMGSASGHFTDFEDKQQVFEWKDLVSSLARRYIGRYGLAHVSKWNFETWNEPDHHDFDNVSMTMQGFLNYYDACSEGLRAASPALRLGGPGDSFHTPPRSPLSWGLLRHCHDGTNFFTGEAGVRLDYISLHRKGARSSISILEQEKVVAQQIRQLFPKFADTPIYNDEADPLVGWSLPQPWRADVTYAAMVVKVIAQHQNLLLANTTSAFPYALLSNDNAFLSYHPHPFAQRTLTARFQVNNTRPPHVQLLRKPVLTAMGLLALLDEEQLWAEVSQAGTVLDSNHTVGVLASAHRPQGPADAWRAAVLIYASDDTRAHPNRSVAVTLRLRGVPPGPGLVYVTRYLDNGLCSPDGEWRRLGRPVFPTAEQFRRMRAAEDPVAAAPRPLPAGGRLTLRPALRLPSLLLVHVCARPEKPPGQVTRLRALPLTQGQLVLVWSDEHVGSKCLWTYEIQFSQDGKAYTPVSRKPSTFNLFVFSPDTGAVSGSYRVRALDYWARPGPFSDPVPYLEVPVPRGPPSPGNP
Summary of the method: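 Purified recombinant human α-L-iduronidase (final 0.75 µM) in 100 mM Hepes, 20 mM MgCl2, pH 7 with SYPRO Orange was heated with compounds (final 1% DMSO). Thermal denaturation was followed by probe fluorescence during a temperature ramp, and stabilization expressed as ΔTm, binned into four categories (A–D).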

[2] = molecular target: T2, ALDURAZYME (laronidase, IDUA) (Homo sapiens, UniProt P35475); experiment: Denaturation prevention assay with ALDURAZYME; format: biochemical; settings: 30 µM compound, pH 7, 37° C.
T2 construct: purchased ALDURAZYME®
T2 sequence (P35475 26-653 limits assumed): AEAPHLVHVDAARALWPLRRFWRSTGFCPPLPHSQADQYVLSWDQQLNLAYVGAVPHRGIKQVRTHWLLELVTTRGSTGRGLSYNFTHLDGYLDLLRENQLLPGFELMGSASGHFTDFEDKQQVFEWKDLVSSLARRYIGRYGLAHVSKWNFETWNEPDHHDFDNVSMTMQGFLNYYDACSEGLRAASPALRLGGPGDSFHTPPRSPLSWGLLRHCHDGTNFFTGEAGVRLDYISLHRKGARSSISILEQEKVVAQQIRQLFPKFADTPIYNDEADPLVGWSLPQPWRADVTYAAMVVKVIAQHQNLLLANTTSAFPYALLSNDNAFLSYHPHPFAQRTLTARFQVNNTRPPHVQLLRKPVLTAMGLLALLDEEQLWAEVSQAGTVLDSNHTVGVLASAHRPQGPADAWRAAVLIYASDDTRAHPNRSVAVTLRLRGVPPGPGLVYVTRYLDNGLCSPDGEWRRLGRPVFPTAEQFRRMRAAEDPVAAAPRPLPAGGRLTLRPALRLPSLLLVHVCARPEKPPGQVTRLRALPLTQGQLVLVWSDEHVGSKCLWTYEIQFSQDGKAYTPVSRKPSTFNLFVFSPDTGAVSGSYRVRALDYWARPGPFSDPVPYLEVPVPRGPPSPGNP
Procedure: (§1) Briefly, recombinant human α-L-iduronidase protein (obtained in the Institute of Biotechnology and Biomedicine in the UAB, Bellaterra, Spain) was combined at a final concentration of 1 µM with 5X of SYPRO Orange and 30 µM of the corresponding compound in a final reaction volume of 25 µL in 100 mM Hepes 20 mM MgCl2 pH 7 buffer. Reactions were incubated at 37° C. and SYPRO Orange fluorescence intensity was monitored at the indicated time points using Glomax® Discover Microplate Reader from Promega (Madison, WI, USA).
Compounds of Examples 8, 39, 40, 54, and 72 were also tested as described above, except that ALDURAZYME® was used instead of the recombinant human α-L-iduronidase protein (obtained in the Institute of Biotechnology and Biomedicine in the UAB, Bellaterra, Spain).

[3] = molecular target: T3, Recombinant human α-L-iduronidase protein (Homo sapiens, UniProt P35475); experiment: Denaturation prevention assay in neutral pH buffer; format: biochemical; settings: 500 µM reference compound, pH 7, 37° C.
T3 construct: Ala26-Pro653 with a C-terminal 10_His tag; 10xHis (C); host or cells: HEK293f (stated in b1366 for the UAB protein)
T3 sequence (P35475 26-653): T2 sequence (P35475 26-653 limits assumed)
Procedure: The capacity of Compounds of the Disclosure to stabilize α-L-iduronidase in neutral pH buffer was assessed using the denaturation prevention assay.
as §1
The compound referred to as Compound A throughout this specification is the compound of Example 8 described above. […] (T=37° C.).

| prevention of IDUA denaturation [2] | prevention of pH-induced IDUA denaturation [3] | SMILES | DSF Activity range [1] |
| --- | --- | --- | --- |
| prevent IDUA denaturation |  | Cc1csc2c(=O)[nH]c(CN(C)CC(=O)N3CCc4ccccc43)nc12 [Example 39] | B (ΔTm GALC between 0.5 and 1 is shown as B) |
| prevent IDUA denaturation |  | Cc1csc2c(=O)[nH]c(CN(C)CC(=O)N(C)c3ccc(Cl)c(Cl)c3)nc12 [Example 40, 2-(N-((3,4-dihydro-7-methyl-4-oxothieno[3,2-d]pyrimidin-2-yl)methyl)-N-methylamino)-N-(3,4-dichlorophenyl)-N-methylacetamide] | B (ΔTm GALC between 0.5 and 1 is shown as B) |
| prevent IDUA denaturation |  | CN(CC(=O)N1CCc2ccccc21)Cc1nc2cc(F)ccc2c(=O)[nH]1 [Example 72, 7-fluoro-2-(((2-(indolin-1-yl)-2-oxoethyl)(methyl)amino)methyl)quinazolin-4(3H)-one] | B (ΔTm GALC between 0.5 and 1 is shown as B) |

Second part, the compound before the results:

| SMILES | prevention of IDUA denaturation [2] | prevention of pH-induced IDUA denaturation [3] | DSF Activity range [1] |
| --- | --- | --- | --- |
| CCCN(CC(=O)N(C)c1ccccc1Cl)Cc1nc2cc(C)sc2c(=O)[nH]1 [Example 54] | prevent IDUA denaturation |  | B (ΔTm GALC between 0.5 and 1 is shown as B) |
| O=C[C@H](O)[C@@H](O)[C@H](O)[C@@H](O)C(=O)O [L-iduronic acid, reference compound] |  | minimal effect |  |
